Assay results reported in patent US10835466B2, “Wrinkle ameliorating agent” (POLA CHEMICAL INDUSTRIES, INC., priority 2016, dated 2020).
Structures can show the parent of a compound that is named as a salt.

Tested on: wrinkles of the outer corners of the eyes
Experiment: Test of wrinkle improvement effect (skin replica shadow image analysis after 8 weeks of application)
Type: in vivo, women
Conditions: for Wrinkle improvement Improvement rate (%): applied to outer corners of the eyes twice a day for 8 weeks; for Wrinkle improvement Evaluation: twice a day for 8 weeks, class of the improvement rate
Description: The cosmetics (Examples 1-7, Comparative Example, and Reference Examples) according to Table 1 were prepared respectively in a conventional manner. With regard to each of the prepared cosmetics, the wrinkle improvement effect was evaluated by the following method. In other words, 45 women (40 to 60 years old) who were concerned about wrinkles of the outer corners of the eyes were divided into 9 groups of 5 persons. To each group, any one of the cosmetics of Examples 1 to 7, Comparative Example, and Reference Examples was handed over, which was applied by them to the outer corners of the eyes twice a day in the morning and evening continuously for 8 weeks. Before and after the test, an impression of the skin surface profile was taken in a conventional manner to produce the respective replicas. As the base material for the replica, that for a white replica not transmitting light was used. […] The distribution of brightness in the shadow image was determined, and the brightness equal to or higher than the median value of the brightness was transformed to the maximum brightness, and the brightness below the median value was transformed to the brightness 0 so that binarization is performed according to the borderline of the median value of the brightness. Then the area rate of the shadow portion (portion with the brightness 0) was measured and the wrinkle improvement rate was calculated based on the following expression. Wrinkle improvement rate (%)=(Area rate of shadow portion before test−Area rate of shadow portion after test)/(Area rate of shadow portion before test)×100

[1] = cosmetic of Table 1 with 0.01% by mass compound (Examples 3 and 5), average of group of 5 women
[2] = cosmetic of Table 1 with 0.01% by mass compound (Examples 3 and 5)
[3] = cosmetic of Table 1 with 1% by mass compound, average of group of 5 women (40 to 60 years old)
[4] = cosmetic of Table 1 with 1% by mass compound

SMILES	Wrinkle improvement Improvement rate (%) [1]	Wrinkle improvement Evaluation [2]	Wrinkle improvement Improvement rate (%) [3]	Wrinkle improvement Evaluation [4]
NCC1CCC(C(=O)c2ccc(CCC(=O)O)cc2)CC1 (centres unmarked) [Compound 1, 3-[p-(4-aminomethylcyclohexylcarbonyl)phenyl]propionic acid]	6.3%	A (5% or more and less than 10%)	12%	AA (The improvement rate is 10% or more)
NCC1CCC(C(=O)c2ccc(CCCO)cc2)CC1 (centres unmarked) [Compound 3, 3-[p-(4-aminomethylcyclohexylcarbonyl)phenyl]propanol]	5.6%	A (5% or more and less than 10%)	9.3%	A (5% or more and less than 10%)
NC[C@H]1CC[C@H](C(=O)O)CC1 [Tranexamic acid, reference compound]			3.2%	B (less than 5%)
NCC1CCC(C(=O)c2ccc(CCC(=O)O)cc2)CC1 (centres unmarked) [Hydrochloride salt of Compound 1, 3-[p-(4-aminomethylcyclohexylcarbonyl)phenyl]propionic acid]			12.2%	AA (The improvement rate is 10% or more)
CNC(=O)[C@H]1CC[C@H](CN)CC1.Cl [Tranexamic acid methylamide hydrochloride, reference compound]			3.6%	B (less than 5%)
CCCCCC(=O)OCC(C)Cc1ccc(C(=O)C2CCC(CN)CC2)cc1 (centres unmarked) [Compound 5, 2-methyl-3-[p-(4-aminomethylcyclohexylcarbonyl)phenyl]propyl hexanoate]			6.5%	A (5% or more and less than 10%)
CCCCCCOC(=O)CCc1ccc(C(=O)C2CCC(CN)CC2)cc1 (centres unmarked) [Compound 2, hexyl 3-[p-(4-aminomethylcyclohexylcarbonyl)phenyl]propionate]			8.2%	A (5% or more and less than 10%)
CCCCCC(=O)OCCCc1ccc(C(=O)C2CCC(CN)CC2)cc1 (centres unmarked) [Compound 4, 3-[p-(4-aminomethylcyclohexylcarbonyl)phenyl]propyl hexanoate]			8.3%	A (5% or more and less than 10%)
